The values below come from patent US12673946B2, “Pyrimidin-4(3H)-one derivatives as TRPV4 antagonists” (RaQualia Pharma Inc., priority 2020, dated 2026).

pIC50: −log10 of the molar value.

The test has as its target T1, human TRPV4 (Homo sapiens, UniProt Q9HBA0).
T1 construct: host or cells: tetracycline-inducible Flp-In T-REx 293 cells
The test can be described thus: Hypotonicity-induced Ca2+ influx (Fluo-4, FDSS). In kind it is cell-based. In a few lines: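 Flp-In T-REx 293 cells with tetracycline-induced human TRPV4, loaded with Fluo-4 for 60 min at 25 °C. Compound added 5 min before hypotonic mannitol/CaCl2 solution. Ca2+ signal recorded for 4.5 min on FDSS.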

Where [1] appears, read: Flp-In T-REx 293 cells expressing human TRPV4, examples listed under heading 'Human IC50<50 nM'.
The mark [2] stands for this setting: Flp-In T-REx 293 cells stably expressing human TRPV4, compounds listed by potency bin (<10 nM Tables 96-1/96-2, <3 nM Table 97).

T1 sequence (Q9HBA0 whole entry): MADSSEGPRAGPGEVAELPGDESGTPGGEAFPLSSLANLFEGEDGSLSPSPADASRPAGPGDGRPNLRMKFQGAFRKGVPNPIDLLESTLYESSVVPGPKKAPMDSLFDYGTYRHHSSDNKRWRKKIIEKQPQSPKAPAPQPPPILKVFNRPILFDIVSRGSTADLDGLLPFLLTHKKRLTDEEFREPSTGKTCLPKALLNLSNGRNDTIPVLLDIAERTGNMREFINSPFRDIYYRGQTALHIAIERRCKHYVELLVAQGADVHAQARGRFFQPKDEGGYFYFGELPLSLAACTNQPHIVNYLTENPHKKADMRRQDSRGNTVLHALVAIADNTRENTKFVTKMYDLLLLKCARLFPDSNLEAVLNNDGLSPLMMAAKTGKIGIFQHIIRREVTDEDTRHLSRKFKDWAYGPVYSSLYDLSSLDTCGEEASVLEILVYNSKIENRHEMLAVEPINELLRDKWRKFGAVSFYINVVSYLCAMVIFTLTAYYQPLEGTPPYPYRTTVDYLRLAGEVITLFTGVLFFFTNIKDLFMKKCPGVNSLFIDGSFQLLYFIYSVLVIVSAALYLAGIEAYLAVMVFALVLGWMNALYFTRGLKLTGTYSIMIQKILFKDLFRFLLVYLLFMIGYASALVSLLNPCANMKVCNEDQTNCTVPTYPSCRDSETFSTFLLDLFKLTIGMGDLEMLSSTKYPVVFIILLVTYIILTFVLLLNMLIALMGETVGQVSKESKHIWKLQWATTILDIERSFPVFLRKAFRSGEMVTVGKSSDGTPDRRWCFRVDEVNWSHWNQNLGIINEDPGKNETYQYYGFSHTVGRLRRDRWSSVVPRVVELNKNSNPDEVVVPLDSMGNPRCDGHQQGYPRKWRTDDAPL

Usually pIC50 stands for the IC50 on a negative log10 scale, so that one unit is a factor of ten. A low value points to a large IC50. On to `CC(C)c1cccc(C2(c3nc4c(c(=O)[nH]3)CN(C(=O)[C@H](O)c3cccc(C(F)(F)F)c3)CC4)CC2)c1` [27-1], for which the pIC50 runs as follows: under setting [1], more than 7.30; under setting [2], more than 8.00. Compound `O=C([C@H](O)c1cccc(C(F)(F)F)c1)N1CCc2nc(C3(c4cccc(C5CCCC5)c4)CC3)[nH]c(=O)c2C1` [27-2] had a pIC50 under setting [1] of more than 7.30 and a pIC50 under setting [2] of more than 8.00. For `O=C([C@H](O)c1cccc(C(F)(F)F)c1)N1CCc2nc(C3(c4cccc(C5CCOCC5)c4)CC3)[nH]c(=O)c2C1` [27-3] the same measures were more than 7.30 and more than 8.00. Regarding `O=C(Cc1cccc(-c2cccc(C(F)(F)F)c2)c1)N1CCc2nc(C3(c4cccc(C5CCCCC5)c4)CC3)[nH]c(=O)c2C1` [27-4], the pIC50 runs as follows: under setting [1], more than 7.30; under setting [2], more than 8.00. `CC(C)c1cccc(C2(c3nc4c(c(=O)[nH]3)CN(C(=O)Cc3cccc(-c5cccc(Cl)c5)c3)CC4)CC2)c1` [27-5] gave a pIC50 under setting [1] of more than 7.30. As to `CC(C)c1cccc(C2(c3nc4c(c(=O)[nH]3)CN(C(=O)Cc3cccc(-c5cccc(C(F)(F)F)c5)c3)CC4)CC2)c1` [27-6], the pIC50 by setting is: under setting [1], more than 7.30; under setting [2], more than 8.00.

For the compound `O=C(Cc1cccc(-c2cccc(Cl)c2)c1)N1CCc2nc(C3(c4cccc(C5CCCCC5)c4)CC3)[nH]c(=O)c2C1` [27-7], the pIC50 was more than 7.30 under setting [1] and more than 8.00 under setting [2].

Compound `O=C([C@H](O)c1cccc(C(F)(F)F)c1)N1CCc2nc(C3(c4cncc(C5CCCC5)c4)CC3)[nH]c(=O)c2C1` [28-1] had a pIC50 under setting [1] of more than 7.30 and a pIC50 under setting [2] of more than 8.52.

Regarding `O=C([C@H](O)c1cccc(C(F)(F)F)c1)N1CCc2nc(C3(c4cncc(C5CCCCC5)c4)CC3)[nH]c(=O)c2C1` [28-2], the pIC50 under setting [1] is more than 7.30 and the pIC50 under setting [2] was more than 8.00. For `CC(C)c1cncc(C2(c3nc4c(c(=O)[nH]3)CN(C(=O)[C@H](O)c3cccc(C(F)(F)F)c3)CC4)CC2)c1` [28-3] the same measures were more than 7.30 and more than 8.00. For `O=C([C@H](O)c1cccc(C(F)(F)F)c1)N1CCc2nc(C3(c4cncc(C5CCC(F)(F)CC5)c4)CC3)[nH]c(=O)c2C1` [28-4] the same measures were more than 7.30 and more than 8.00. The compound `O=C([C@H](O)c1cccc(C(F)(F)F)c1)N1CCc2nc(C3(c4cncc(C5CCOCC5)c4)CC3)[nH]c(=O)c2C1` [28-5] had a pIC50 under setting [1] of more than 7.30. Turning to `CC(C)c1cccc(C2(c3nc4c(c(=O)[nH]3)CN(C(=O)[C@H](O)c3cccc(Cl)c3)CCC4)CC2)c1` [29-1], the pIC50 is more than 7.30 under setting [1] and more than 8.00 under setting [2]. With `O=C([C@H](O)c1cccc(Cl)c1)N1CCCc2nc(C3(c4cccc(C5CCCCC5)c4)CC3)[nH]c(=O)c2C1` [29-2, (R)-6-(2-(3-chlorophenyl)-2-hydroxyacetyl)-2-(1-(3-cyclohexylphenyl)cyclopropyl)-3,5,6,7,8,9-hexahydro-4H-pyrimido[5,4-c]azepin-4-one], the pIC50 is, setting by setting: under setting [1], more than 7.30; under setting [2], more than 8.52. `O=C([C@H](O)c1cccc(Cl)c1)N1CCCc2nc(C3(c4cccc(C5CCCC5)c4)CC3)[nH]c(=O)c2C1` [29-3]: the negative logarithm of the IC50 (pIC50) reads like this: under setting [1], more than 7.30; under setting [2], more than 8.52. For `O=C([C@H](O)c1cccc(Cl)c1)N1CCCc2nc(C3(c4cccc(C5CCC(F)(F)CC5)c4)CC3)[nH]c(=O)c2C1` [29-4] the same measures were more than 7.30 and more than 8.52. For `O=C([C@H](O)c1cccc(C(F)(F)F)c1)N1CCCc2nc(C3(c4cc(C5CCCC5)cs4)CC3)[nH]c(=O)c2C1` [30-1] the same measures were more than 7.30 and more than 8.52.

Regarding `CCc1csc(C2(c3nc4c(c(=O)[nH]3)CN(C(=O)[C@H](O)c3cccc(C(F)(F)F)c3)CCC4)CC2)c1` [30-2], the pIC50 by setting is: under setting [1], more than 7.30; under setting [2], more than 8.52. For `O=C([C@H](O)c1cccc(C(F)(F)F)c1)N1CCCc2nc(C3(c4cc(C5CCC(F)(F)CC5)cs4)CC3)[nH]c(=O)c2C1` [30-3] the same measures were more than 7.30 and more than 8.52. Consider `CC(C)(C)CCc1csc(C2(c3nc4c(c(=O)[nH]3)CN(C(=O)[C@H](O)c3cccc(C(F)(F)F)c3)CCC4)CC2)c1` [30-4], for which the pIC50 is, setting by setting: under setting [1], more than 7.30; under setting [2], more than 8.00. For `O=C([C@H](O)c1cccc(C(F)(F)F)c1)N1CCCc2nc(C3(c4cc(CCC56CC7CC(CC(C7)C5)C6)cs4)CC3)[nH]c(=O)c2C1` [30-5] the same measures were more than 7.30 and more than 8.00. For `O=C([C@H](O)c1cccc(C(F)(F)F)c1)N1CCCc2nc(C3(c4cc(CCC5CCOCC5)cs4)CC3)[nH]c(=O)c2C1` [30-6] the same measures were more than 7.30 and more than 8.00. For `O=C([C@H](O)c1cccc(C(F)(F)F)c1)N1CCCc2nc(C3(c4cc(C5CCOCC5)cs4)CC3)[nH]c(=O)c2C1` [30-7], the pIC50 runs as follows: under setting [1], more than 7.30; under setting [2], more than 8.00. For `O=C([C@H](O)c1cccc(C(F)(F)F)c1)N1CCCc2nc(C3(c4cc(CCC5CC5)cs4)CC3)[nH]c(=O)c2C1` [30-8] the same measures were more than 7.30 and more than 8.00. For `O=C([C@H](O)c1cccc(C(F)(F)F)c1)N1CCCc2nc(C3(c4cc(CCc5ccccc5)cs4)CC3)[nH]c(=O)c2C1` [30-9] the same measures were more than 7.30 and more than 8.00. For `COCCCc1csc(C2(c3nc4c(c(=O)[nH]3)CN(C(=O)[C@H](O)c3cccc(C(F)(F)F)c3)CCC4)CC2)c1` [30-10] the same measures were more than 7.30 and more than 8.00. On to `O=C([C@H](O)c1cccc(C(F)(F)F)c1)N1CCCc2nc(C3(c4cc(CCC5COC5)cs4)CC3)[nH]c(=O)c2C1` [30-11], for which the negative logarithm of the IC50 (pIC50) was more than 7.30 under setting [1] and more than 8.00 under setting [2]. `CC(C)(O)CCc1csc(C2(c3nc4c(c(=O)[nH]3)CN(C(=O)[C@H](O)c3cccc(C(F)(F)F)c3)CCC4)CC2)c1` [30-12] had a pIC50 under setting [1] of more than 7.30.

As to `CC(=O)N1CCC(c2csc(C3(c4nc5c(c(=O)[nH]4)CN(C(=O)[C@H](O)c4cccc(C(F)(F)F)c4)CCC5)CC3)c2)CC1` [30-13], under setting [1], the pIC50 is more than 7.30.

As for `O=C([C@H](O)c1cccc(C(F)(F)F)c1)N1CCCc2nc(C3(c4cc(CCC5(O)CCCCC5)cs4)CC3)[nH]c(=O)c2C1` [30-14], the pIC50 is more than 7.30 under setting [1] and more than 8.00 under setting [2].

As to `O=C([C@H](O)c1cccc(C(F)(F)F)c1)N1CCCc2nc(C3(c4cccc(C5CCN(CC(F)(F)F)CC5)c4)CC3)[nH]c(=O)c2C1` [31-1], the pIC50 was more than 7.30 under setting [1] and more than 8.52 under setting [2]. For `O=C([C@H](O)c1cccc(C(F)(F)F)c1)N1CCCc2nc(C3(c4cccc(C5CCC(F)(F)CC5)c4)CC3)[nH]c(=O)c2C1` [31-2] the same measures were more than 7.30 and more than 8.52. As for `CC1(C)CCC(c2cccc(C3(c4nc5c(c(=O)[nH]4)CN(C(=O)[C@H](O)c4cccc(C(F)(F)F)c4)CCC5)CC3)c2)CC1` [31-3], the pIC50 is, setting by setting: under setting [1], more than 7.30; under setting [2], more than 8.52. Regarding `CC(c1cccc(C2(c3nc4c(c(=O)[nH]3)CN(C(=O)[C@H](O)c3cccc(C(F)(F)F)c3)CCC4)CC2)c1)C(F)(F)F` (stereo partly shown) [31-4], the pIC50 runs as follows: under setting [1], more than 7.30; under setting [2], more than 8.52. For `O=C([C@H](O)c1cccc(C(F)(F)F)c1)N1CCCc2nc(C3(c4cccc(C5CCCC5)c4)CC3)[nH]c(=O)c2C1` [31-5] the same measures were more than 7.30 and more than 8.52. On to `CC(C)Cc1cccc(C2(c3nc4c(c(=O)[nH]3)CN(C(=O)[C@H](O)c3cccc(C(F)(F)F)c3)CCC4)CC2)c1` [31-6], for which the pIC50 was more than 7.30 under setting [1] and more than 8.52 under setting [2].

As to `O=C([C@H](O)c1cccc(C(F)(F)F)c1)N1CCCc2nc(C3(c4cccc(C5CCOCC5)c4)CC3)[nH]c(=O)c2C1` [31-7], the pIC50 was more than 7.30 under setting [1] and more than 8.00 under setting [2]. For `CC(C)c1cccc(C2(c3nc4c(c(=O)[nH]3)CN(C(=O)[C@H](O)c3cccc(C(F)(F)F)c3)CCC4)CC2)c1` [31-8] the same measures were more than 7.30 and more than 8.52. For `O=C(Cc1ccccc1)N1CCC(c2cccc(C3(c4nc5c(c(=O)[nH]4)CN(C(=O)[C@H](O)c4cccc(C(F)(F)F)c4)CCC5)CC3)c2)CC1` [31-9], the pIC50 was more than 7.30 under setting [1] and more than 8.00 under setting [2].

`O=C(c1ccccc1)N1CCC(c2cccc(C3(c4nc5c(c(=O)[nH]4)CN(C(=O)[C@H](O)c4cccc(C(F)(F)F)c4)CCC5)CC3)c2)CC1` [31-10]: the pIC50 was more than 7.30 under setting [1] and more than 8.00 under setting [2]. On to `O=C(CCc1ccccc1)N1CCC(c2cccc(C3(c4nc5c(c(=O)[nH]4)CN(C(=O)[C@H](O)c4cccc(C(F)(F)F)c4)CCC5)CC3)c2)CC1` [31-11], for which the pIC50 is, setting by setting: under setting [1], more than 7.30; under setting [2], more than 8.52. For `CC(C)(C)CC(=O)N1CCC(c2cccc(C3(c4nc5c(c(=O)[nH]4)CN(C(=O)[C@H](O)c4cccc(C(F)(F)F)c4)CCC5)CC3)c2)CC1` [31-12] the same measures were more than 7.30 and more than 8.00.

For the compound `CC(C)c1cccc(C2(c3nc4c(c(=O)[nH]3)CN(C(=O)Cc3cccc(-c5cccc(C(F)(F)F)c5)c3)CCC4)CC2)c1` [31-13], the pIC50 under setting [1] was more than 7.30 and the pIC50 under setting [2] was more than 8.00. For `O=C(Cc1cccc(-c2cccc(C(F)(F)F)c2)c1)N1CCCc2nc(C3(c4cccc(C5CCCCC5)c4)CC3)[nH]c(=O)c2C1` [31-14] the same measures were more than 7.30 and more than 8.00. For `CC(C)c1cccc(C2(c3nc4c(c(=O)[nH]3)CN(C(=O)Cc3cccc(-c5cccc(Cl)c5)c3)CCC4)CC2)c1` [31-15] the same measures were more than 7.30 and more than 8.00. `O=C(Cc1cccc(-c2cccc(Cl)c2)c1)N1CCCc2nc(C3(c4cccc(C5CCCCC5)c4)CC3)[nH]c(=O)c2C1` [31-16]: the negative-log IC50 (pIC50) runs as follows: under setting [1], more than 7.30; under setting [2], more than 8.00.
